Measurements: article PMC10148624, “Discovery of diarylpyrimidine derivatives bearing piperazine sulfonyl as potent HIV-1 nonnucleoside reverse transcriptase inhibitors” (Communications Chemistry, 2023)
Where two headings read alike, the source gives them in different places. Marks after values point to notes of the source that are not given here.

Columns and labels:
WT HIV-1 RT = molecular target: T1, WT HIV-1 RT (Human immunodeficiency virus type 1 group M subtype B, UniProt P04585); experiment: biochemical
T1 construct: purchased Roche
Experimental: Section 4. HIV-1 RT inhibition assays
A reverse transcriptase (RT) assay kit produced by Roche was selected for the RT inhibition assay.3 All the reagents for performing the RT reaction came with the kit and the ELSIA procedures for RT inhibition assay was carried out following the description in the kit protocol. Briefly, the reaction mixture containing template/primer complex, viral nucleotides (dNTPs) and RT in the incubation buffer with or without inhibitors was incubated for 1 h at 37 °C . After that, the reaction mixture was transferred to a streptavidine coated microtiter plate and incubated for another 1 h at 37 °C to make sure retranscriptional cDNA chain that consisted biotin labeled dNTPs bound to streptavidine. Then unbound dNTPs were removed using washing buffer and anti-DIG-POD working solution was added. After incubation for 1 h at 37 °C , the DIG-labeled dNTPs incorporated in cDNA were bound to the anti-DIG-POD antibody. The unbound

HIV-1 WT (IIIB) [1] = conditions: MT-4 cells, MTT method; same laboratory, same method; cited from earlier work
HIV-1 E138K = experiment: microbe, parasite or virus in culture; format: cell-based; conditions: Human immunodeficiency virus 1, MT4, read-out: EC50 E138K
Experimental: (§1) compounds were made directly in flat-bottomed 96-well microtiter trays by adding 100 μL medium to the 25 μL stock solution and transferring 25 μL of this solution to another well that contained 100 μL medium using a Biomek 3000 robot (Beckman Instruments, Fullerton, CA). Untreated control HIV- and mock-infected cell samples were included for each sample. HIV-1 WT strain (IIIB), HIV-1 drug-resistant strains including […]
(§2) (50% cell culture infectious dose) or culture medium was added to either the infected or mock-infected wells of the microtiter tray. Mock-infected cells were used to evaluate the effect of test compounds on uninfected cells in order to assess its cytotoxicity.
(§3) Exponentially growing MT-4 cells were centrifuged for 5 min at 1000 rpm and the supernatant was discarded.
(§4) 50 μL volumes were transferred to the microtiter tray wells. Five days after infection, the viability of mock- and HIV-infected cells was examined spectrophotometrically by […]
(§5) concentration of the test compound that reduced the viability of the mock-infected MT- […]

[2] = system: HIV-1 K103N/Y181C double mutant (RES056); experiment: microbe, parasite or virus in culture; format: cell-based; conditions: for EC50: Human immunodeficiency virus 1, MT4, read-out: EC50 RES056
Experimental: (§6) The biological results were determined as EC50 (anti-HIV potency), CC50 (cytotoxicity) and SI (selectivity index, the ratio of CC50/EC50). […]
as §1, §2, §3, §4, §5

HIV-1 WT (IIIB) [3] = experiment: microbe, parasite or virus in culture; format: cell-based; conditions: for EC50: Human immunodeficiency virus 1, IIIB
Experimental: as §6, §1, §2, §3, §4, §5

CYP2D6 = CYP2D6 (Homo sapiens, UniProt P10635); experiment: in vitro
Chain of CYP2D6 (P10635 whole entry): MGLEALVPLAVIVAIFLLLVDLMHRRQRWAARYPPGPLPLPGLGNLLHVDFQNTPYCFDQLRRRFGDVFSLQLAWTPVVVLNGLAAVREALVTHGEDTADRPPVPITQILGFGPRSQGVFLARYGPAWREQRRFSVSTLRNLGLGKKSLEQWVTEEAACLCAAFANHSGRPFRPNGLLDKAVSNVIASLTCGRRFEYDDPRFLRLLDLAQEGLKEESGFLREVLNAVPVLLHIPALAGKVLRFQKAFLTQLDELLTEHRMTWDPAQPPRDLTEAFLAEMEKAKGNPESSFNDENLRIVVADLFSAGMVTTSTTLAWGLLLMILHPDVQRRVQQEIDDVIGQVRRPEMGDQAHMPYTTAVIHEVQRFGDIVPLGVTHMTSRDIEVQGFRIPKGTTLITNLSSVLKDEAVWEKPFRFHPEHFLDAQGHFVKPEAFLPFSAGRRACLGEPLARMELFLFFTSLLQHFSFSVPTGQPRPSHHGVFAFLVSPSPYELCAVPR
Experimental: Fig. S3 Decomposition of the binding free energy (per-residue) into contributions from electrostatic energy, vdw energy, polar solvation energy, and non-polar solvation energy. a K103N-18b1. b […]
Section 7. Water solubility measurements
Water solubility was measured in phosphate buffer at pH 7.0 by using an HPLC-UV method.17 Compounds were initially dissolved in DMSO at 10 mg/mL 10 μL of this stock solution was spiked into purified water (1 mL) with the final DMSO concentration being 1%. The mixture was ultrasonic for 2 h at room temperature and restored at room temperature overnight. The saturated solution was filtrated through a filter membrane (pore size = 0.22 μm) and transferred to other Eppendorf tubes for analysis by HPLC-UV. The sample was performed in triplicate. For quantification, a model LC-20AT HPLC-UV (SHIMADZU) system was used with an Inertsil ® ODS-SP-C18 column (150 mm × 4.6 mm, 5 μm) and MeOH/water as eluant. The flow rate was 1.0 mL/min, and injection volume was 20 μL. Aqueous concentration was determined by comparison of the peak area of the saturated solution with a standard curve plotted peak area versus known concentrations, which were prepared by solutions in MeOH at 200, […]
(§7) Section 8. CYP enzyme inhibition assay […]
Section 9. Pharmacokinetics studies […]
approval from the Animal Ethical and Welfare Committee (AEWC). Ten male […]
Blood samples (200 μL of blood
Briefly, 50 μL of plasma was […]
tube, which was centrifuged at 3000g for 10 min. The supernatant layer was collected […]
Standard curves for 18b1 in […]
with an internal standard to blank plasma. Then all samples were quantified with an […]

HIV-1 Y188L = experiment: Anti-HIV-1 activity against Y188L mutant strain, MTT method in MT-4 cells; format: cell-based; conditions: Human immunodeficiency virus 1, MT4, read-out: EC50 Y188L
Description: (§8) According to the anti-HIV-1(WT) results, the promising compounds 18a(1–5), 18b(1–5) and 18c1 were chosen to further evaluate their inhibitory potency against the prevalent HIV-1 mutations, including L100I, K103N, Y181C, Y188L, E138K, and F227L/V106A. […]. page 20:
(§9) or mock-infected wells of the microtiter tray. Mock-infected cells were used to evaluate
(§10) supernatant was discarded.
(§11) Five days after infection,
(§12) 4 cells by 50%. […]

[4] = at pH 7.0; cited from earlier work
CYP1A2 = molecular target: T2, CYP1A2 (Homo sapiens, UniProt P05177); experiment: in vitro; conditions: microsomes
T2 sequence (P05177 1-516): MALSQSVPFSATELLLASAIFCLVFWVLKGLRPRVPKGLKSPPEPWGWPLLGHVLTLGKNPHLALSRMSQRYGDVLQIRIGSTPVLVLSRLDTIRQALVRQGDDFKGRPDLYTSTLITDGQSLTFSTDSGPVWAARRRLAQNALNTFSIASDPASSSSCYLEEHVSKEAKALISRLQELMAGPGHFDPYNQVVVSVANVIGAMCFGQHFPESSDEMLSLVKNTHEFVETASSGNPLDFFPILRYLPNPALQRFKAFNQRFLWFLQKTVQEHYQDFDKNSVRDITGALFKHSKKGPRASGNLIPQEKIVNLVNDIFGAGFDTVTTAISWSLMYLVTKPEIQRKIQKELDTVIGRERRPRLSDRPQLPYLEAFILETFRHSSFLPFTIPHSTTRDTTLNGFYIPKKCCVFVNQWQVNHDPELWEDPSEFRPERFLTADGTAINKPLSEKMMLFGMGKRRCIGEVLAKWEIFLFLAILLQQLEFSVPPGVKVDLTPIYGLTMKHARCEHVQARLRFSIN
Description: as §7
(§13) Agilent 1200 LC/MSD (Agilent, USA).

CYP2C9 = CYP2C9 (Homo sapiens, UniProt P11712); experiment: CYP enzyme inhibition assay in human liver microsome, CYP2C9; conditions: read-out: IC50 CYP2C9; human liver microsome, probe substrate diclofenac
Chain of CYP2C9 (P11712 whole entry): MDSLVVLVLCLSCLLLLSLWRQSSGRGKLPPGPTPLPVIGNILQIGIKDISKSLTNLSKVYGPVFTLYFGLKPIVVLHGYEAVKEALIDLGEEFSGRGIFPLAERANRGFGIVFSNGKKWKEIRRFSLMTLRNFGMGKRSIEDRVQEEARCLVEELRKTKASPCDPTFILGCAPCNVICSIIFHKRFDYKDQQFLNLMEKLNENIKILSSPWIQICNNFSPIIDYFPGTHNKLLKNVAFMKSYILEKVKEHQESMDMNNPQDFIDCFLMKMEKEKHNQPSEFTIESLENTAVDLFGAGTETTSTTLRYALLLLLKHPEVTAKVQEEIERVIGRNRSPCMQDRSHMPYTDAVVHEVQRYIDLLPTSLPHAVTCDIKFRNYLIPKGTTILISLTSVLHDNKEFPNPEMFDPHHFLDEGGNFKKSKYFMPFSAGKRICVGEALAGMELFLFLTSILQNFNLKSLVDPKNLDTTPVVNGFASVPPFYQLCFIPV
Description: as §7, §13

CYP3A4 = CYP3A4 (Homo sapiens, UniProt P08684); experiment: in vitro; conditions: microsomes
Chain of CYP3A4 (P08684 whole entry): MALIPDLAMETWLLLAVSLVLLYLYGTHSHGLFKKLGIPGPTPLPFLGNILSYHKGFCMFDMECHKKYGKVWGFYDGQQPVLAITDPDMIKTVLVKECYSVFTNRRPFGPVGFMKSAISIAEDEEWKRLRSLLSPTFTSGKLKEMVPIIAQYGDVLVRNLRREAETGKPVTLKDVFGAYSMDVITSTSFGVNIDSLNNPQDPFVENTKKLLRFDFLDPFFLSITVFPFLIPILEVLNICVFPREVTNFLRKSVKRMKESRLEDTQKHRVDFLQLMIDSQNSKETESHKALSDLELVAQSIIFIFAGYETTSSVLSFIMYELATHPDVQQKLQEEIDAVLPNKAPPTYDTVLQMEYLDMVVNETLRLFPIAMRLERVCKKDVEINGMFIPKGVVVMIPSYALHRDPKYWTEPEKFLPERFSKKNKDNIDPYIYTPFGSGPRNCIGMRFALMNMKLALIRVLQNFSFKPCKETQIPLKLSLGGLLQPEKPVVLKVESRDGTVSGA
Description: as §7, §13

CYP2C19 = CYP2C19 (Homo sapiens, UniProt P33261); experiment: CYP enzyme inhibition assay in human liver microsome, CYP2C19; conditions: read-out: IC50 CYP2C19; human liver microsome, probe substrate S-mephenytoin
Chain of CYP2C19 (P33261 whole entry): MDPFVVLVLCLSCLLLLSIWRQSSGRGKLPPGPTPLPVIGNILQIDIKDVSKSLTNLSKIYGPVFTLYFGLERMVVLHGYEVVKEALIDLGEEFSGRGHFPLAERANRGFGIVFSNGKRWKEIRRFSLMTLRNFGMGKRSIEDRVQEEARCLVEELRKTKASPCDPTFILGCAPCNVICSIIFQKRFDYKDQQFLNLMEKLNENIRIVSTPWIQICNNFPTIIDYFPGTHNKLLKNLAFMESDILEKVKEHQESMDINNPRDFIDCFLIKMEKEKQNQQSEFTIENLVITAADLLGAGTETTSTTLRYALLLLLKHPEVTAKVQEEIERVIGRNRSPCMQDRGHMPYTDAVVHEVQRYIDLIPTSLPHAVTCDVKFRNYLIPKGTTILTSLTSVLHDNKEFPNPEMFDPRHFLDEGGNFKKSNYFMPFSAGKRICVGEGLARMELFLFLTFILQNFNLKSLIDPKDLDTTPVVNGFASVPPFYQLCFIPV
Description: as §7, §13

HIV-1 F227L/V106A = experiment: Anti-HIV-1 activity against F227L/V106A mutant strain, MTT method in MT-4 cells; format: cell-based; conditions: Human immunodeficiency virus 1, MT4, read-out: EC50 F227L/V106A
Description: as §8, §9, §10, §11, §12

HIV-1 Y181C = experiment: Anti-HIV-1 activity against Y181C mutant strain, MTT method in MT-4 cells; format: cell-based; conditions: Human immunodeficiency virus 1, MT4, read-out: EC50 Y181C, MT-4 cells, MTT method, mean ± SD, n ≥ 4
Description: as §9, §10, §11, §12

[5] = set-up: method as in PMID 24008177; conditions: cited from earlier work
HIV-1 K103N = experiment: Anti-HIV-1 activity against K103N mutant strain, MTT method in MT-4 cells; format: cell-based; conditions: Human immunodeficiency virus 1, MT4, read-out: EC50 K103N
Description: as §8, §9, §10, §11, §12

in vitro = conditions: human
Experimental: as §6, §1, §2, §3, §4, §5

HIV-1 L100I = experiment: microbe, parasite or virus in culture; format: cell-based; conditions: Human immunodeficiency virus 1, MT4, read-out: EC50 L100I
Experimental: as §1, §2, §3, §4, §5

[6] = selectivity index, ratio of CC50/EC50

SMILES: Cc1cc(/C=C/C#N)cc(C)c1Nc1ccnc(Nc2ccc(C#N)cc2)n1 [RPV, rilpivirine]
- IC50 (WT HIV-1 RT): 430 ± 87 nM
- EC50 (HIV-1 WT (IIIB) [1]): 1 ± 0.27 nM

SMILES: Cc1cc(C#N)cc(C)c1Oc1nc(Nc2ccc(C#N)cc2)nc(N)c1Br [ETR, etravirine]
- IC50 (WT HIV-1 RT): 1350 ± 350 nM
- EC50 (HIV-1 E138K): 18 ± 7.2 nM
- EC50 [2]: 76 ± 25 nM
- EC50 (HIV-1 WT (IIIB) [3]; MT4, MT-4 cells, MTT method, mean ± SD, n ≥ 4, read-out: EC50 IIIB): 3.3 ± 0.38 nM
- IC50 at 10 min (CYP2D6; human, microsomes, IC50 CYP2D6): > 10000 nM
- IC50 (CYP2D6; read-out: IC50 CYP2D6, human liver microsome, probe substrate dextromethorphan): 12000 nM
- EC50 (HIV-1 Y188L): 25 ± 7.6 nM
- water solubility [4]: <1^e μg/mL
- IC50 at 10 min (CYP1A2): > 10000 nM
- IC50 (CYP2C9): 277 nM
- IC50 at 10 min (CYP3A4): > 10000 nM
- IC50 (CYP2C19): 496 nM
- EC50 (HIV-1 F227L/V106A): 25 ± 7.2 nM
- EC50 (HIV-1 Y181C): 18 ± 3.8 nM
- oral bioavailability (F) [5]: undetectable
- EC50 (HIV-1 K103N): 4.3 ± 1 nM

SMILES: Cc1cn([C@H]2C[C@H](N=[N+]=[N-])[C@@H](CO)O2)c(=O)[nH]c1=O [AZT, zidovudine]
- EC50 [2]: 37 ± 11 nM
- SI RES056 [2, 6]: >200
- EC50 (HIV-1 WT (IIIB) [3]; MT4, read-out: EC50 IIIB): 32 ± 9.6 nM
- SI IIIB (HIV-1 WT (IIIB) [3]; [6]): >234
- CC50 at 5 days (in vitro): > 7480 nM

SMILES: Cc1cc(/C=C/C#N)cc(C)c1Oc1ccnc(Nc2ccc(CN3CCN(S(C)(=O)=O)CC3)cc2)n1 [BH-11c]
- EC50 (HIV-1 E138K): 9.4 ± 5 nM
- EC50 (HIV-1 L100I): 14 ± 5.3 nM
- EC50 (HIV-1 Y188L): 1320 ± 220 nM
- EC50 (HIV-1 F227L/V106A): 210 ± 95 nM
- EC50 (HIV-1 K103N): 3.7 ± 1.6 nM
